Here are results for three compounds from BindingDB's records for patent US11111253 (University of Pittsburgh, 2021).

In this test the target is T1, Signal transducer and activator of transcription 1-alpha/beta (Homo sapiens, UniProt P42224).
T1 sequence (P42224 whole entry): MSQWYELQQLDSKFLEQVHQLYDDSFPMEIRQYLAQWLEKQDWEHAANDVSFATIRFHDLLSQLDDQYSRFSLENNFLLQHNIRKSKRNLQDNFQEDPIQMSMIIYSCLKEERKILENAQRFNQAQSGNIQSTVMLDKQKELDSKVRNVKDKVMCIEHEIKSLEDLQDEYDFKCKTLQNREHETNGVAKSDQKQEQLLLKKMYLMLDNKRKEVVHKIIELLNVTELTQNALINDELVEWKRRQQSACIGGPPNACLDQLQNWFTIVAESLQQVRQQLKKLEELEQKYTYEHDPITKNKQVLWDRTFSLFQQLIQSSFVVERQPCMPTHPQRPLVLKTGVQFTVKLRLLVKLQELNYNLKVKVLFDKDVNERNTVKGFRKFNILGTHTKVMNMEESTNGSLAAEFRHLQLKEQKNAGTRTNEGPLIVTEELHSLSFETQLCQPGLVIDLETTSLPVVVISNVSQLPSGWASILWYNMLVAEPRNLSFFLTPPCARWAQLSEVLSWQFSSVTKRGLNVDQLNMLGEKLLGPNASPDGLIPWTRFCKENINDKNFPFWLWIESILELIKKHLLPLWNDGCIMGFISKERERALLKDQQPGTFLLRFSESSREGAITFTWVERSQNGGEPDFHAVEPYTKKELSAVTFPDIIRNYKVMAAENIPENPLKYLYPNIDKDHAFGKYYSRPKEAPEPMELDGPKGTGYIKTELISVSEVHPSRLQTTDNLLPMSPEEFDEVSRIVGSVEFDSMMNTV
As to the kind of experiment: Bioassay. As to the method: Compound samples (in 3-5 mg quantities) were evaluated in a variety of assays. All compound submissions were fully characterized (1H, 13C, IR, FIRMS), satisfied purity criteria (≥95% LC/MC, ELS).

For the compound `COc1ccc(C2=Nn3c(nnc3-c3cc(-c4ccccc4)n[nH]3)SC2)cc1` [US11111253, Compound 8b], the IC50 – broadly, the midpoint of a concentration-inhibition curve – is over 50 µM.
Then `CC(C)CC1Sc2nnc(-c3[nH]nc4c3CCC4)n2N=C1c1ccc(Cl)c(Cl)c1` (stereo not drawn) [US11111253, Compound 27], with over 50 µM.
Then `COc1ccc(C2=Nn3c(nnc3-c3cc(-c4ccccc4)n[nH]3)SC2CC(C)C)cc1` (stereo not drawn) [US11111253, Compound 28], with over 50 µM.
